From US20110293537A1, “FORMULATIONS WITH ANTI-NEOPLASTIC ACTIVITY” (priority 2008, published 2011)
Read-outs that look alike come from different tables or passages of the source.

Legend:
[1] = system: DMBA-induced lesions (OPL, ExL) of hamster buccal pouch; details: in vivo
[2] = cited from earlier work
[3] = cited from earlier work; remark: listed apart in the source
[4] = system: buccal pouches and principal organs; experiment: Local toxicity of empty vehicles without DMBA induction; type: in vivo, Syrian golden hamsters (Mesocricetus auratus)
Description: The last thirty animals were randomly divided in three further groups (n=10 each) to evaluate the local toxicity of the empty vehicles (TE, TC and TM) without DMBA carcinogenesis induction. Topical application of EtOH, cream and mouthwash was performed in the same manner before described.
In vivo side effects were investigated after 14 weeks of E, C and M topical applications on right buccal pouches on three groups of animals (TE, TC and TM respectively).

HCPC-I cells = details: in vitro, FIG. 2
Description: Cells were harvested every 3-4 days with 0.25% trypsin solution (from Sigma). […] HCPC-I cells were dispensed at a density of 5×10^2/100 μl for each well in RPMI-1640 supplemented with 10% FCS. […] After 72 h of incubation, cells were supplemented with 10 μl of a stock solution (5 mg/ml) of MTT (Sigma) in phosphate buffer saline (PBS). At least 3 h later, culture medium was replaced with 100 μl of dimethyl-sulfoxide (DMSO, Sigma) and plates read at 560 nm with a “Microplate Reader model 450” (BioRad). Cell viability was expressed as average percentage of absorbance in treated cells versus control (culture medium alone).

[5] = cited from earlier work; remark: listed apart in the source
[6] = 14 weeks topical application, no DMBA

Oc1ccc(/C=C/c2cc(O)cc(O)c2)cc1 [RV, 3,4′,5-trihydroxy-trans-stilbene]
tolerance of topical application on oral mucosa [1]: good tolerance | oral bioavailability ([2]; human): very poor | initial half-life ([2]; in vivo): 8 to 14 min | pKa ([3]; 3-OH group): 10 | pKa ([3]; 4′-OH group): 9.3 | pKa ([3]; 5-OH group): 10.6

hydroxypropyl-β-cyclodextrin [HPβCD]
toxic signs or adverse effects in chronic treated hamsters ([4]; in vivo concentrations): did not display any toxic signs or adverse effects | inhibition of cell growth by HPβCD (HCPC-I cells): inhibition of cell growth only at extremely high concentrations | dose with main adverse event (soft stools and diarrhea) ([5]; almost 14 days): 16-24 g HPβCD/day | oral toxicity ([5]; orally administered): practically non-toxic

CCO [EtOH, ethanol]
gross observations of pouches and principal organs [4, 6]: did not reveal any macroscopic alterations | histological HE analysis, local adverse reactions [4, 6]: absence of local adverse reactions
